Measurements reported in patent US9156801B2, “2-substituted oleanolic acid derivative, method preparing for same, and application thereof” (HANGZHOU BENSHENG PHARMACEUTICAL CO., LTD., priority 2011, dated 2015).
Values after ≈ are worked out from the molar mass of the structure shown.

Experiments:
Hep G2 cell line = test: solid tumor cell growth inhibition, MTT; type: cell-based, human; details: Homo sapiens; for inhibition at 16 µg/mL: HepG2, 72 h, Hep G2, 16 μg/mL compound, 72 h, read-out: IR (cell proliferation inhibition rate); for IC50: HepG2, Hep G2, 72 h
Protocol: (§1) Hep-2 (laryngeal carcinoma), A549 (human lung cancer), CaES-17 (esophageal cancer cell), PC-3 (prostate cancer), CNE (nasopharyngeal carcinoma cell), and SK-OV-3 (ovarian cancer cell), all of which are purchased from China Center For Type Culture Collection; RKO (human colon adenocarcinoma cell), MGC 803 (human gastric cancer cell), MG63 (osteosarcoma) and U87 MG (malignant glioma cell), all of which are purchased from Fuxiang Bio-tech Co. Ltd., Shanghai, China; PANC-1 (pancreatic cancer), Hep G2 (human liver cancer cell), Becap37 (human breast cancer cell), and Hela (human cervical cancer cell), all of which are donated by Cancer Research Institute of Zhejiang University, China.
(§2) Obtaining 4000 well-growing human solid tumor cells and inoculating them into wells of a 96-well cell culture plate. The culture medium is DMEM High Glucose cell culture medium containing 10% fetal bovine serum. The plate is placed in a carbon dioxide cell incubator (5% CO2) at 37° C. for 24 hours. After adding the 2-substituted oleanolic acid derivatives of different concentrations and mixing uniformly, the plate is placed in a carbon dioxide cell incubator (5% CO2) at 37° C. and incubated for 72 hours. Then the relative number of the living cells is determined by MTT method. In this experiment, the cell proliferation inhibition rate in control group (not treated with any compound) is set as 0%.

CaES-17 cell line = test: solid tumor cell growth inhibition, MTT; type: cell-based; details: Homo sapiens, CaEs17; for inhibition at 16 µg/mL: CaES-17, 16 μg/mL compound, 72 h, read-out: IR (cell proliferation inhibition rate); for IC50: CaES-17, 72 h
Protocol: as §1, §2

MG-63 cell line = test: solid tumor cell growth inhibition, MTT; type: cell-based; details: Homo sapiens; for IC50: MG-63, 72 h; for inhibition at 16 µg/mL: MG-63, 16 μg/mL compound, 72 h, read-out: IR (cell proliferation inhibition rate)
Protocol: as §1, §2

CNE cell line = test: solid tumor cell growth inhibition, MTT; type: cell-based; details: Homo sapiens, 72 h; for inhibition at 16 µg/mL: 16 μg/mL compound, read-out: IR (cell proliferation inhibition rate)
Protocol: as §1, §2

SK-OV-3 cell line = test: solid tumor cell growth inhibition, MTT; type: cell-based; details: Homo sapiens; for IC50: SK-OV-3, 72 h; for inhibition at 16 µg/mL: SK-OV-3, 16 μg/mL compound, 72 h, read-out: IR (cell proliferation inhibition rate)
Protocol: as §1, §2

Hep-2 cell line = test: solid tumor cell growth inhibition, MTT; type: cell-based; details: Homo sapiens; for IC50: HEp-2, 72 h; for inhibition at 16 µg/mL: Hep-2, 16 μg/mL compound, 72 h, read-out: IR (cell proliferation inhibition rate)
Protocol: as §1, §2

PC-3 cell line = test: solid tumor cell growth inhibition, MTT; type: cell-based; details: Homo sapiens; for IC50: PC-3, 72 h; for inhibition at 16 µg/mL: PC-3, 16 μg/mL compound, 72 h, read-out: IR (cell proliferation inhibition rate)
Protocol: as §1, §2

MGC 803 cell line = test: solid tumor cell growth inhibition, MTT; type: cell-based; details: Homo sapiens; for inhibition at 16 µg/mL: MGC 803, 16 μg/mL compound, 72 h, read-out: IR (cell proliferation inhibition rate); for IC50: MGC 803, 72 h
Protocol: as §1, §2

A549 cell line = test: solid tumor cell growth inhibition, MTT; type: cell-based; details: Homo sapiens; for IC50: A549, 72 h; for inhibition at 16 µg/mL: A549, 16 μg/mL compound, 72 h, read-out: IR (cell proliferation inhibition rate)
Protocol: as §1, §2

PANC-1 cell line = test: solid tumor cell growth inhibition, MTT; type: cell-based; details: Homo sapiens; for IC50: PANC-1, 72 h; for inhibition at 16 µg/mL: PANC-1, 16 μg/mL compound, 72 h, read-out: IR (cell proliferation inhibition rate)
Protocol: as §1, §2

RKO cell line = test: solid tumor cell growth inhibition, MTT; type: cell-based; details: Homo sapiens, 72 h; for inhibition at 16 µg/mL: 16 μg/mL compound, read-out: IR (cell proliferation inhibition rate)
Protocol: as §1, §2

U87 MG cell line = test: solid tumor cell growth inhibition, MTT; type: cell-based; details: Homo sapiens, U-87 MG, 72 h; for inhibition at 16 µg/mL: 16 μg/mL compound, read-out: IR (cell proliferation inhibition rate)
Protocol: as §1, §2

Hela cell line = test: solid tumor cell growth inhibition, MTT; type: cell-based; details: Homo sapiens, 72 h; for IC50: HeLa; for inhibition at 16 µg/mL: Hela, 16 μg/mL compound, read-out: IR (cell proliferation inhibition rate)
Protocol: as §1, §2

Becap37 cell line = test: solid tumor cell growth inhibition, MTT; type: cell-based; details: Homo sapiens; for inhibition at 16 µg/mL: Becap37, 16 μg/mL compound, 72 h, read-out: IR (cell proliferation inhibition rate); for IC50: Becap37, 72 h
Protocol: as §1, §2

RPMI8226 cell line = test: multiple myeloma cell growth inhibition, MTT; type: cell-based; details: Homo sapiens, RPMI-8226; for inhibition at 16 µg/mL: RPMI8226, 16 μg/mL compound, 72 h, read-out: IR (cell proliferation inhibition rate); for IC50: RPMI8226, 72 h
Protocol: Multiple myeloma cell lines: RPMI8226 (multiple myeloma), purchased from Fuxiang Bio-tech Co. Ltd., Shanghai, China.
(§3) Obtaining 6000 well-growing cells as above and inoculating them into wells of a 96-well cell culture plate. The culture medium is the 1640 cell culture medium containing 10% fetal bovine serum. After adding the 2-substituted oleanolic acid derivatives of different concentrations and mixing uniformly, placing the plate in a carbon dioxide cell incubator (5% CO2) at 37° C. and incubated for 72 hours. Then the relative number of viable cells is determined by MTT method. In this experiment, cell proliferation inhibition rate in control group (not treated with any compound) is set as 0%.

K562/adr cell line = test: leukemia cell growth inhibition, MTT; type: cell-based; details: Homo sapiens, 72 h; for IC50: K562/Adr; for inhibition at 16 µg/mL: K562/adr, 16 μg/mL compound, read-out: IR (cell proliferation inhibition rate)
Text: (§4) Leukemia cell lines: leukemia cell lines: K562/adr (drug-resistant, chronic myeloid leukemia, CML), NB4 (acute promyelocytic leukemia, AML), Kasumi-1 (acute myeloid leukemia M2 type, AML-M2), Jurkat (acute lymphoblastic leukemia, ALL), all of which are donated by Cancer Research Institute of Zhejiang University, China; and H9 (acute lymphoblastic leukemia, ALL), which is purchased from China Center for Type Culture Collection (CCTCC).
as §3, with “well-growing leukemia” for “well-growing”, “cells” for “cells as above”

Kasumi-1 cell line = test: leukemia cell growth inhibition, MTT; type: cell-based; details: Homo sapiens; for inhibition at 16 µg/mL: Kasumi-1, 16 μg/mL compound, 72 h, read-out: IR (cell proliferation inhibition rate); for IC50: Kasumi-1, 72 h
Text: as §4
as §3, with “well-growing leukemia” for “well-growing”, “cells” for “cells as above”

H9 cell line = test: leukemia cell growth inhibition, MTT; type: cell-based; details: Homo sapiens; for IC50: H9, 72 h; for inhibition at 16 µg/mL: H9, 16 μg/mL compound, 72 h, read-out: IR (cell proliferation inhibition rate)
Text: as §4
as §3, with “well-growing leukemia” for “well-growing”, “cells” for “cells as above”

NB4 cell line = test: leukemia cell growth inhibition, MTT; type: cell-based; details: Homo sapiens, NB-4; for inhibition at 16 µg/mL: NB4, 16 μg/mL compound, 72 h, read-out: IR (cell proliferation inhibition rate); for IC50: NB4, 72 h
Text: as §4
as §3, with “well-growing leukemia” for “well-growing”, “cells” for “cells as above”

Jurkat cell line = test: leukemia cell growth inhibition, MTT; type: cell-based; details: Homo sapiens, 72 h; for inhibition at 16 µg/mL: 16 μg/mL compound, read-out: IR (cell proliferation inhibition rate)
Text: as §4
as §3, with “well-growing leukemia” for “well-growing”, “cells” for “cells as above”

Row | Structure (SMILES) | inhibition at 16 µg/mL (Hep G2 cell line) [%] | IC50 (Hep G2 cell line) [µg/mL] | inhibition at 16 µg/mL (CaES-17 cell line) [%] | IC50 (CaES-17 cell line) [µg/mL] | IC50 (MG-63 cell line) [µg/mL] | inhibition at 16 µg/mL (MG-63 cell line) [%] | inhibition at 16 µg/mL (CNE cell line) [%] | IC50 (CNE cell line) [µg/mL] | IC50 (SK-OV-3 cell line) [µg/mL] | inhibition at 16 µg/mL (SK-OV-3 cell line) [%] | IC50 (Hep-2 cell line) [µg/mL] | inhibition at 16 µg/mL (Hep-2 cell line) [%] | IC50 (PC-3 cell line) [µg/mL] | inhibition at 16 µg/mL (PC-3 cell line) [%] | inhibition at 16 µg/mL (MGC 803 cell line) [%] | IC50 (MGC 803 cell line) [µg/mL] | IC50 (A549 cell line) [µg/mL] | inhibition at 16 µg/mL (A549 cell line) [%] | IC50 (PANC-1 cell line) [µg/mL] | inhibition at 16 µg/mL (PANC-1 cell line) [%] | other results
1 | COC(=O)[C@]12CCC(C)(C)CC1C1=CCC3[C@@]4(C)CC(C(=O)NCCCN5CCCC5)C(=O)C(C)(C)C4CC[C@@]3(C)[C@]1(C)CC2 (some centres unmarked) [BS-OA-016] | > 96 | 2.58 (≈ 4.14 µM) | 99.4 | 3.93 (≈ 6.31 µM) | 4.35 (≈ 6.98 µM) | 100 | 99.4 | 4.07 (≈ 6.53 µM) | 5.04 (≈ 8.09 µM) | 99.5 | 5.85 (≈ 9.39 µM) | 97.2 | 5.06 (≈ 8.12 µM) | 99.8 | 99.1 | 3 (≈ 4.82 µM) | 2.45 (≈ 3.93 µM) | 96.8 | 4.38 (≈ 7.03 µM) | 98.5 | inhibition at 16 µg/mL (RKO cell line): 99.4%; IC50 (RKO cell line): 3.33 µg/mL (≈ 5.35 µM); inhibition at 16 µg/mL (U87 MG cell line): 100%; IC50 (U87 MG cell line): 2.45 µg/mL (≈ 3.93 µM); IC50 (Hela cell line): 3.78 µg/mL (≈ 6.07 µM); inhibition at 16 µg/mL (Hela cell line): 98%; inhibition at 16 µg/mL (Becap37 cell line): 99.5%; IC50 (Becap37 cell line): 5.12 µg/mL (≈ 8.22 µM); inhibition at 16 µg/mL (RPMI8226 cell line): 99%; IC50 (RPMI8226 cell line): 1.15 µg/mL (≈ 1.85 µM); IC50 (K562/adr cell line): 0.52 µg/mL (≈ 0.835 µM); inhibition at 16 µg/mL (K562/adr cell line): 97.8%; inhibition at 16 µg/mL (Kasumi-1 cell line): 99.1%; IC50 (Kasumi-1 cell line): 3.76 µg/mL (≈ 6.04 µM); IC50 (H9 cell line): 2.96 µg/mL (≈ 4.75 µM); inhibition at 16 µg/mL (H9 cell line): 95.4%; inhibition at 16 µg/mL (NB4 cell line): 99.8%; IC50 (NB4 cell line): 2.94 µg/mL (≈ 4.72 µM); inhibition at 16 µg/mL (Jurkat cell line): 95.1%; IC50 (Jurkat cell line): 2.38 µg/mL (≈ 3.82 µM)
2 | COC(=O)[C@]12CCC(C)(C)CC1C1=CCC3[C@@]4(C)CC(C(=O)NCCc5cccnc5)C(=O)C(C)(C)C4CC[C@@]3(C)[C@]1(C)CC2 (some centres unmarked) [BS-OA-027] | 51.4 | 15.6 (≈ 25.3 µM) | 49.5 | 17 (≈ 27.5 µM) | > 16 | 25.4 | 51.3 | 15.6 (≈ 25.3 µM) | 6.63 (≈ 10.7 µM) | 91.6 | > 16 | 35.5 | 7.79 (≈ 12.6 µM) | 68.9 | 80.1 | 9.96 (≈ 16.1 µM) | > 16 | 45.6 | > 16 | 36.9 | inhibition at 16 µg/mL (RKO cell line): 46.8%; IC50 (RKO cell line): 16 µg/mL (≈ 25.9 µM); inhibition at 16 µg/mL (U87 MG cell line): 48.7%; IC50 (U87 MG cell line): 16 µg/mL (≈ 25.9 µM); IC50 (Hela cell line): 10.8 µg/mL (≈ 17.4 µM); inhibition at 16 µg/mL (Hela cell line): 62%; inhibition at 16 µg/mL (Becap37 cell line): 34.3%; IC50 (Becap37 cell line): > 16 µg/mL; inhibition at 16 µg/mL (RPMI8226 cell line): 86.5%; IC50 (RPMI8226 cell line): 6.1 µg/mL (≈ 9.89 µM); IC50 (K562/adr cell line): 3.7 µg/mL (≈ 6 µM); inhibition at 16 µg/mL (K562/adr cell line): 82.6%; inhibition at 16 µg/mL (Kasumi-1 cell line): 72.2%; IC50 (Kasumi-1 cell line): 12.4 µg/mL (≈ 20.1 µM); IC50 (H9 cell line): 7.72 µg/mL (≈ 12.5 µM); inhibition at 16 µg/mL (H9 cell line): 92.5%; inhibition at 16 µg/mL (NB4 cell line): 93.8%; IC50 (NB4 cell line): 4.57 µg/mL (≈ 7.41 µM); inhibition at 16 µg/mL (Jurkat cell line): 83.4%; IC50 (Jurkat cell line): 9.85 µg/mL (≈ 16 µM)
